Source: patent US4450269A, “Mono-5-substituted-3-chloro-4H-1,2,6-thiadiazin-4-one antifungal agents” (FMC Corporation, priority 1980, dated 1984)
Like-named read-outs stand apart in the source and are kept apart here.

Legend:
Venturia inaequalis = test: Spore germination test; format: cell-based; settings: VI, 48 hours
Protocol: VI = Venturia inaequalis
The test chemical was dissolved or suspended in acetone in an amount such that 0.8 ml of the resulting suspension or solution, mixed with 40 ml water agar produced a water agar solution containing 40, 10, 2.5 and 1 ppm of test chemical. The resulting agar solution, at 50° C., was then divided equally between two sterile petri dishes, each having four separated quadrants, and allowed to solidify. […] quadrants of each dish were flooded with 0.1 ml of a spore suspension in sterile water. Spores of two pathogens, Erysiphe polygoni and Uromyes phaseoli, from infected plant leaves, were brushed on the remaining two quadrants. The tests were then incubated 48 hours, at 24° C.
Readings were then taken and the percentage of germinated spores calculated. From this percentage, a spore germination rating was assigned as follows: […]

Phytophthora infestans = format: cell-based; settings: PI, 48 hours
Pyricularia oryzae = test: whole plant or invertebrate; format: in vivo; settings: Pyricularia oryzae, foliar, 24 h, read-out: Percent Disease Control, curative, rice blast, 150 ppm, 24 hours after inoculation

Structure (SMILES) | Spore Germination Rating (Venturia inaequalis; 1.0 ppm) | Spore Germination Rating (Venturia inaequalis; 2.5 ppm) | Spore Germination Rating (Venturia inaequalis; 10 ppm) | Spore Germination Rating (Venturia inaequalis; 40 ppm) | Spore Germination Rating (Phytophthora infestans; 1.0 ppm) | Spore Germination Rating (Phytophthora infestans; 2.5 ppm) | Spore Germination Rating (Phytophthora infestans; 10 ppm) | Spore Germination Rating (Phytophthora infestans; 40 ppm) | pest or weed control at 150 ppm (Pyricularia oryzae) [%]
O=c1c(Cl)nsnc1Oc1ccc(F)cc1 [Compound 11, 3-chloro-5-(4-fluorophenoxy)-4H--1,2,6-thiadiazin-4-one] | 4 (80-100) | 1 (10-40) | 0 (0-10) | 0 (0-10) | 4 (80-100) | 0 (0-10) | 0 (0-10) | 0 (0-10) | 0
CC(=O)c1cccc(Oc2nsnc(Cl)c2=O)c1 [Compound 48, 3-(3-acetylphenoxy)-5-chloro-4H--1,2,6-thiadiazin-4-one] | 3 (60-80) | 1 (10-40) | 0 (0-10) | 0 (0-10) | 0 (0-10) | 0 (0-10) | 0 (0-10) | 0 (0-10) | 50
Cc1cc(Cl)ccc1Oc1nsnc(Cl)c1=O [Compound 55, 3-chloro-5-(4-chloro-2-methylphenoxy)-4H--1,2,6-thiadiazin-4-one] | 1 (10-40) | 0 (0-10) | 0 (0-10) | 0 (0-10) | 1 (10-40) | 0 (0-10) | 0 (0-10) | 0 (0-10) | 50
Cc1cc(Oc2nsnc(Cl)c2=O)cc(C)c1Cl [Compound 59, 3-chloro-5-[(4-chloro-3,5-dimethyl)phenoxy]-4H--1,2,6-thiadiazin-4-one] | 1 (10-40) | 1 (10-40) | 0 (0-10) | 1 (10-40) | 4 (80-100) | 1 (10-40) | 1 (10-40) | 0 (0-10) | 0
CC(=O)c1ccc(Oc2nsnc(Cl)c2=O)cc1 [Compound 47, 3-(4-acetylphenoxy)-5-chloro-4H--1,2,6-thiadiazin-4-one] | 1 (10-40) | 0 (0-10) | 0 (0-10) | 0 (0-10) | 0 (0-10) | 0 (0-10) | 0 (0-10) | 0 (0-10) | 90
Cc1ccc(Oc2nsnc(Cl)c2=O)cc1 [Compound 3, 3-chloro-5-(4-methylphenoxy)-4H--1,2,6-thiadiazin-4-one] | 4 (80-100) | 4 (80-100) | 0 (0-10) | 0 (0-10) | 3 (60-80) | 2 (40-60) | 0 (0-10) | 0 (0-10) | 0
O=c1c(Cl)nsnc1Oc1c(Cl)cc(Cl)cc1Cl [Compound 30, 3-chloro-5-(2,4,6-trichlorophenoxy)-4H--1,2,6-thiadiazin-4-one] | 1 (10-40) | 0 (0-10) | 0 (0-10) | 0 (0-10) | 4 (80-100) | 1 (10-40) | 0 (0-10) | 0 (0-10) | 0
CC(=O)c1ccccc1Oc1nsnc(Cl)c1=O [Compound 49, 3-(2-acetylphenoxy)-5-chloro-4H--1,2,6-thiadiazin-4-one] | 4 (80-100) | 4 (80-100) | 1 (10-40) | 0 (0-10) | 3 (60-80) | 1 (10-40) | 1 (10-40) | 1 (10-40) | 0
O=c1c(Cl)nsnc1Oc1ccc(Cl)c(Cl)c1 [Compound 16, 3-chloro-5-(3,4-dichlorophenoxy)-4H--1,2,6-thiadiazin-4-one] | 0 (0-10) | 0 (0-10) | 0 (0-10) | 0 (0-10) | 1 (10-40) | 0 (0-10) | 0 (0-10) | 0 (0-10) | 90
COc1ccc(Cl)c(Oc2nsnc(Cl)c2=O)c1 [Compound 51, 3-chloro-5-[(2-chloro-5-methoxy)phenoxy]-4H--1,2,6-thiadiazin-4-one] |  |  |  |  | 4 (80-100) | 3 (60-80) | 1 (10-40) | 0 (0-10) | 0
CC(C)(C)c1ccc(Oc2nsnc(Cl)c2=O)cc1 [Compound 4, 3-chloro-5-(4-tert-butylphnoxy)-4H--1,2,6-thiadiazin-4-one] | 4 (80-100) | 4 (80-100) | 0 (0-10) | 0 (0-10) | 4 (80-100) | 3 (60-80) | 0 (0-10) | 0 (0-10) | 95
CCOC(=O)c1ccc(Oc2nsnc(Cl)c2=O)cc1 [Compound 7, 3-chloro-5-(4-ethoxycarbonylphenoxy)-4H--1,2,6-thiadiazin-4-one] | 0 (0-10) | 0 (0-10) | 0 (0-10) | 0 (0-10) | 0 (0-10) | 0 (0-10) | 0 (0-10) | 0 (0-10) | 0
Cc1ccccc1Oc1nsnc(Cl)c1=O [Compound 22, 3-chloro-5-(2-methylphenoxy)-4H--1,2,6-thiadiazin-4-one] | 0 (0-10) | 0 (0-10) | 0 (0-10) | 0 (0-10) | 0 (0-10) | 0 (0-10) | 0 (0-10) | 0 (0-10) | 0
N#CCc1ccc(Oc2nsnc(Cl)c2=O)cc1 [Compound 46, 3-chloro-5-[(4-cyanomethyl)-phenoxy]4H--1,2,6-thiadiazin-4-one] |  |  |  |  | 4 (80-100) | 1 (10-40) | 1 (10-40) | 0 (0-10) | 0
O=C(OCc1ccccc1)Oc1ccc(Oc2nsnc(Cl)c2=O)cc1 [Compound 38, 3-chloro-5-[4-(phenylmethoxycarbonyloxy)phenoxyl]-4H-1,2,6-thiadiazin-4-one] |  |  |  |  | 4 (80-100) | 4 (80-100) | 4 (80-100) | 3 (60-80) | 0
O=c1c(Cl)nsnc1Oc1ccc([N+](=O)[O-])cc1Cl [Compound 53, 3-chloro-5-(2-chloro-4-nitrophenoxy)-4H--1,2,6-thiadiazin-4-one] |  |  |  |  | 1 (10-40) | 0 (0-10) | 0 (0-10) | 0 (0-10) | 0
Cc1cccc(Oc2nsnc(Cl)c2=O)c1 [Compound 21, 3-chloro-5-(3-methylphenoxy)-4H--1,2,6-thiadiazin-4-one] | 4 (80-100) | 3 (60-80) | 0 (0-10) | 0 (0-10) | 4 (80-100) | 1 (10-40) | 0 (0-10) | 0 (0-10) | 85
O=c1c(Cl)nsnc1Oc1cccc(C(F)(F)F)c1 [Compound 44, 3-chloro-5-[(3-trifluoromethyl)phenoxy]-4H--1,2,6-thiadiazin-4-one] | 1 (10-40) | 1 (10-40) | 0 (0-10) | 0 (0-10) | 2 (40-60) | 0 (0-10) | 0 (0-10) | 0 (0-10) | 0
COc1cc(Cl)cc(Oc2nsnc(Cl)c2=O)c1 [Compound 52, 3-chloro-5-[(3-chloro-5-methoxy)phenoxy]-4H--1,2,6-thiadiazin-4-one] |  |  |  |  | 4 (80-100) | 0 (0-10) | 0 (0-10) | 0 (0-10) | 95
Cc1ccc(Cl)c(Oc2nsnc(Cl)c2=O)c1 [Compound 56, 3-chloro-5-[(2-chloro-5-methyl)phenoxy]-4H--1,2,6-thiadiazin-4-one] |  |  |  |  | 4 (80-100) | 0 (0-10) | 0 (0-10) | 0 (0-10) | 0
COc1cc(Oc2nsnc(Cl)c2=O)cc(OC)c1C(C)=O [Compound 61, 3-[(4-acetyl-3,5-dimethoxy)-phenoxy]-5-chloro-4H--1,2,6-thiadiazin-4-one] |  |  |  |  | 4 (80-100) | 4 (80-100) | 3 (60-80) | 0 (0-10) | 0
CSc1ccc(Oc2nsnc(Cl)c2=O)cc1 [Compound 39, 3-chloro-5-[(4-methylthio)phenoxy]-4H-1,2,6,-thiadiazin-4-one] |  |  |  |  | 4 (80-100) | 4 (80-100) | 3 (60-80) | 3 (60-80) | 0
O=c1c(Cl)nsnc1Oc1ccc(O)cc1 [Compound 35, 3-chloro-5-(4-hydroxyphenoxy)-4H-1,2,6-thiadiazin-4-one] |  |  |  |  | 4 (80-100) | 0 (0-10) | 0 (0-10) | 0 (0-10) | 0
C[S+]([O-])c1ccc(Oc2nsnc(Cl)c2=O)cc1 (centres unmarked) [Compound 40, 3-chloro-5-[(4-methylsulfinyl)phenoxy]-4H-1,2,6,-thiadiazin-4-one] |  |  |  |  | 4 (80-100) | 3 (60-80) | 2 (40-60) | 0 (0-10) | 0
